Patent US11878965B2, “Inhibitors of peptidylarginine deiminases” (Gilead Sciences, Inc., priority 2020, dated 2024)

Target: human PAD4 (Homo sapiens (Human), UniProt Q9UM07)
Experiment: In Vitro PAD4 BAEE Biochemical Assay
Settings: human PAD4, BAEE substrate; 5 nM PAD4, 2 mM calcium chloride, 3 mM BAEE; geometric mean of multiple experiments
In short: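 Deimination of BAEE substrate (3 mM) measured as ammonia via o-phthalaldehyde–DTT isoindole fluorescence, 405/535 nm. Tag-free bacterially expressed human PAD4 at 5 nM with 2 mM calcium chloride, pH 7.6 MOPS buffer, 30 min compound preincubation then 2 h reaction, both at 25 °C.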

Chain of human PAD4 (Q9UM07 2-663): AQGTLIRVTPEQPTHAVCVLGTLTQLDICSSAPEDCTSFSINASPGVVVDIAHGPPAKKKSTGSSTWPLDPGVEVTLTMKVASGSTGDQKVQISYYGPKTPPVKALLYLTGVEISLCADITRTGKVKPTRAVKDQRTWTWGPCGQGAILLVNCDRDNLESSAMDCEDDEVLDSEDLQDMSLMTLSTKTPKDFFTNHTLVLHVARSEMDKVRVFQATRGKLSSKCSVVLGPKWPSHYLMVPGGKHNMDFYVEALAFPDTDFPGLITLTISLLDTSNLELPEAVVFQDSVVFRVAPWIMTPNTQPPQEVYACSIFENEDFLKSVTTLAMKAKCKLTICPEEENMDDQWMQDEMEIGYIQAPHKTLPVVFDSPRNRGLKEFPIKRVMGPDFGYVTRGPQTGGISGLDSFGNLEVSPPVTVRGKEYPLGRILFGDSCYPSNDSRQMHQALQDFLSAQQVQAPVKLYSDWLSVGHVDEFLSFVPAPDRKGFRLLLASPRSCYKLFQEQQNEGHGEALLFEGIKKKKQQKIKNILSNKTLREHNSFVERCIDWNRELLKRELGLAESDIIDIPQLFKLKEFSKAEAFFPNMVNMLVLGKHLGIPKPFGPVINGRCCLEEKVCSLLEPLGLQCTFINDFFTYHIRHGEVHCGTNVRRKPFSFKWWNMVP

Structure (SMILES)	IC50
COc1cc(C(=O)N2CCC[C@@H](N)C2)cc2nc(-c3cc4ccc([C@@H](C)NC(=O)c5ccccc5)nc4n3CC3CC3)n(C3CC3)c12 [Example 126, N-((R)-1-(2-(5-((R)-3-aminopiperidine-1-carbonyl)-1-cyclopropyl-7-methoxy-1H-benzo[d]imidazol-2-yl)-1-(cyclopropylmethyl)-1H-pyrrolo[2,3-b]pyridin-6-yl)ethyl)benzamide]	90.8 nM
COc1cc(C(=O)N2[C@H]3CC[C@@H]2[C@H](N)C3)cc2nc(-c3cc4ccc([C@@H](C)NC(=O)C(C)(C)C)nc4n3CC3CC3)n(C3CC3)c12 [Example 127, N-((R)-1-(2-(5-((1R,2R,4S)-2-amino-7-azabicyclo[2.2.1]heptane-7-carbonyl)-1-cyclopropyl-7-methoxy-1H-benzo[d]imidazol-2-yl)-1-(cyclopropylmethyl)-1H-pyrrolo[2,3-b]pyridin-6-yl)ethyl)pivalamide]	63.7 nM
COc1cc(C(=O)N2CCC[C@@H](N)C2)cc2nc(-c3cc4ccc([C@@H](C)NC(=O)C(C)(C)C)nc4n3CC3CC3)n(C3CC3)c12 [Example 128, N-((R)-1-(2-(5-((R)-3-aminopiperidine-1-carbonyl)-1-cyclopropyl-7-methoxy-1H-benzo[d]imidazol-2-yl)-1-(cyclopropylmethyl)-1H-pyrrolo[2,3-b]pyridin-6-yl)ethyl)pivalamide]	61.5 nM
COc1cc(C(=O)N2[C@H]3CC[C@@H]2[C@H](N)C3)cc2nc(-c3cc4ccc([C@@H](C)NC(=O)c5ccccc5)nc4n3CC3CC3)n(C3CC3)c12 [Example 129, N-((R)-1-(2-(5-((1R,2R,4S)-2-amino-7-azabicyclo[2.2.1]heptane-7-carbonyl)-1-cyclopropyl-7-methoxy-1H-benzo[d]imidazol-2-yl)-1-(cyclopropylmethyl)-1H-pyrrolo[2,3-b]pyridin-6-yl)ethyl)benzamide]	86 nM
COc1cc(C(=O)N2[C@H]3CC[C@@H]2[C@H](N)C3)cc2nc(-c3cc4ccc([C@@H](C)NC(=O)C56CC(F)(C5)C6)nc4n3CC3CC3)n(C3CC3)c12 [Example 130, N-((R)-1-(2-(5-((1R,2R,4S)-2-amino-7-azabicyclo[2.2.1]heptane-7-carbonyl)-1-cyclopropyl-7-methoxy-1H-benzo[d]imidazol-2-yl)-1-(cyclopropylmethyl)-1H-pyrrolo[2,3-b]pyridin-6-yl)ethyl)-3-fluorobicyclo[1.1.1]pentane-1-carboxamide]	45.1 nM
COc1cc(C(=O)N2[C@H]3CC[C@@H]2[C@H](N)C3)cc2nc(-c3cc4ccc([C@@H](C)NC(C)=O)nc4n3CC3CC3)n(C3CC3)c12 [Example 131, N-((R)-1-(2-(5-((1R,2R,4S)-2-amino-7-azabicyclo[2.2.1]heptane-7-carbonyl)-1-cyclopropyl-7-methoxy-1H-benzo[d]imidazol-2-yl)-1-(cyclopropylmethyl)-1H-pyrrolo[2,3-b]pyridin-6-yl)ethyl)acetamide]	25.9 nM
COc1cc(C(=O)N2CCC[C@@H](N)C2)cc2nc(-c3cc4ccc([C@@H](C)NC(C)=O)nc4n3CC3CC3)n(C3CC3)c12 [Example 132, N-((R)-1-(2-(5-((R)-3-aminopiperidine-1-carbonyl)-1-cyclopropyl-7-methoxy-1H-benzo[d]imidazol-2-yl)-1-(cyclopropylmethyl)-1H-pyrrolo[2,3-b]pyridin-6-yl)ethyl)acetamide]	70.7 nM
COc1cc(C(=O)N2[C@H]3CC[C@@H]2[C@H](N)C3)cc2nc(-c3cc4ccc([C@@H](C)NC(=O)C56CC(F)(C5)C6)cc4n3CC3CC3)n(C)c12 [Example 133, N-((R)-1-(2-(5-((1R,2R,4S)-2-amino-7-azabicyclo[2.2.1]heptane-7-carbonyl)-7-methoxy-1-methyl-1H-benzo[d]imidazol-2-yl)-1-(cyclopropylmethyl)-1H-indol-6-yl)ethyl)-3-fluorobicyclo[1.1.1]pentane-1-carboxamide]	32.2 nM
COc1cc(C(=O)N2[C@H]3CC[C@@H]2[C@H](N)C3)cc2nc(-c3cc4ccc([C@@H](C)NC(=O)C56CC(C#N)(C5)C6)cc4n3CC3CC3)n(C)c12 [Example 134, N-((R)-1-(2-(5-((1R,2R,4S)-2-amino-7-azabicyclo[2.2.1]heptane-7-carbonyl)-7-methoxy-1-methyl-1H-benzo[d]imidazol-2-yl)-1-(cyclopropylmethyl)-1H-indol-6-yl)ethyl)-3-cyanobicyclo[1.1.1]pentane-1-carboxamide]	18.2 nM
COc1cc(C(=O)N2[C@H]3CC[C@@H]2[C@H](N)C3)cc2nc(-c3cc4ccc([C@@H](C)NC(=O)c5cnn(C)c5)cc4n3CC3CC3)n(C)c12 [Example 135, N-((R)-1-(2-(5-((1R,2R,4S)-2-amino-7-azabicyclo[2.2.1]heptane-7-carbonyl)-7-methoxy-1-methyl-1H-benzo[d]imidazol-2-yl)-1-(cyclopropylmethyl)-1H-indol-6-yl)ethyl)-1-methyl-1H-pyrazole-4-carboxamide]	13 nM
COc1cc(C(=O)N2[C@H]3CC[C@@H]2[C@H](N)C3)cc2nc(-c3cc4ccc([C@@H](C)NC(=O)c5ccccc5)cc4n3CC3CC3)n(C)c12 [Example 136, N-((R)-1-(2-(5-((1R,2R,4S)-2-amino-7-azabicyclo[2.2.1]heptane-7-carbonyl)-7-methoxy-1-methyl-1H-benzo[d]imidazol-2-yl)-1-(cyclopropylmethyl)-1H-indol-6-yl)ethyl)benzamide]	27.6 nM
COc1cc(C(=O)N2CCC[C@@H](N)C2)cc2nc(-c3cc4ccc([C@@H](C)NC(=O)c5ccccc5)cc4n3CC3CC3)n(C)c12 [Example 137, N-((R)-1-(2-(5-((R)-3-aminopiperidine-1-carbonyl)-7-methoxy-1-methyl-1H-benzo[d]imidazol-2-yl)-1-(cyclopropylmethyl)-1H-indol-6-yl)ethyl)benzamide]	37.2 nM
COc1cc(C(=O)N2[C@H]3CC[C@@H]2[C@H](N)C3)cc2nc(-c3cc4ccc([C@@H](C)NC(=O)c5cnc(C)o5)cc4n3CC3CC3)n(C)c12 [Example 138, N-((R)-1-(2-(5-((1R,2R,4S)-2-amino-7-azabicyclo[2.2.1]heptane-7-carbonyl)-7-methoxy-1-methyl-1H-benzo[d]imidazol-2-yl)-1-(cyclopropylmethyl)-1H-indol-6-yl)ethyl)-2-methyloxazole-5-carboxamide]	27.6 nM
COc1cc(C(=O)N2[C@H]3CC[C@@H]2[C@H](N)C3)cc2nc(-c3cc4ccc([C@@H](C)NC(=O)c5cnn(C(F)F)c5)cc4n3CC3CC3)n(C)c12 [Example 139, N-((R)-1-(2-(5-((1R,2R,4S)-2-amino-7-azabicyclo[2.2.1]heptane-7-carbonyl)-7-methoxy-1-methyl-1H-benzo[d]imidazol-2-yl)-1-(cyclopropylmethyl)-1H-indol-6-yl)ethyl)-1-(difluoromethyl)-1H-pyrazole-4-carboxamide]	28.9 nM
COc1cc(C(=O)N2[C@H]3CC[C@@H]2[C@H](N)C3)cc2nc(-c3cc4ccc([C@@H](C)NC(=O)C(C)(C)OC)cc4n3CC3CC3)n(C)c12 [Example 140, N-((R)-1-(2-(5-((1R,2R,4S)-2-amino-7-azabicyclo[2.2.1]heptane-7-carbonyl)-7-methoxy-1-methyl-1H-benzo[d]imidazol-2-yl)-1-(cyclopropylmethyl)-1H-indol-6-yl)ethyl)-2-methoxy-2-methylpropanamide]	26.1 nM
COc1cc(C(=O)N2[C@H]3CC[C@@H]2[C@H](N)C3)cc2nc(-c3cc4ccc([C@@H](C)NC(=O)C5(OC)CCC5)cc4n3CC3CC3)n(C)c12 [Example 141, N-((R)-1-(2-(5-((1R,2R,4S)-2-amino-7-azabicyclo[2.2.1]heptane-7-carbonyl)-7-methoxy-1-methyl-1H-benzo[d]imidazol-2-yl)-1-(cyclopropylmethyl)-1H-indol-6-yl)ethyl)-1-methoxycyclobutane-1-carboxamide]	63.3 nM
COc1cc(C(=O)N2[C@H]3CC[C@@H]2[C@H](N)C3)cc2nc(-c3cc4ccc([C@@H](C)NC(=O)C5(OC)CC5)cc4n3CC3CC3)n(C)c12 [Example 142, N-((R)-1-(2-(5-((1R,2R,4S)-2-amino-7-azabicyclo[2.2.1]heptane-7-carbonyl)-7-methoxy-1-methyl-1H-benzo[d]imidazol-2-yl)-1-(cyclopropylmethyl)-1H-indol-6-yl)ethyl)-1-methoxycyclopropane-1-carboxamide]	44.5 nM
COc1cc(C(=O)N2CCC[C@@H](N)C2)cc2nc(-c3cc4ccc([C@@H](C)NC(=O)C56CC(F)(C5)C6)c(F)c4n3CC3CC3)n(C)c12 [Example 143, N-((R)-1-(2-(5-((R)-3-aminopiperidine-1-carbonyl)-7-methoxy-1-methyl-1H-benzo[d]imidazol-2-yl)-1-(cyclopropylmethyl)-7-fluoro-1H-indol-6-yl)ethyl)-3-fluorobicyclo[1.1.1]pentane-1-carboxamide]	502 nM
COc1cc(C(=O)N2CCC[C@@H](N)C2)cc2nc(-c3cc4cc(F)c([C@@H](C)NC(=O)C56CC(F)(C5)C6)cc4n3CC3CC3)n(C)c12 [Example 145, N-((R)-1-(2-(5-((R)-3-aminopiperidine-1-carbonyl)-7-methoxy-1-methyl-1H-benzo[d]imidazol-2-yl)-1-(cyclopropylmethyl)-5-fluoro-1H-indol-6-yl)ethyl)-3-fluorobicyclo[1.1.1]pentane-1-carboxamide]	62.8 nM
COc1cc(C(=O)N2[C@H]3CC[C@@H]2[C@H](N)C3)cc2nc(-c3cc4cc(F)c(CCNC(=O)C56CC(F)(C5)C6)cc4n3CC3CC3)n(C)c12 [Example 146, N-((R)-2-(2-(5-((1R,2R,4S)-2-amino-7-azabicyclo[2.2.1]heptane-7-carbonyl)-7-methoxy-1-methyl-1H-benzo[d]imidazol-2-yl)-1-(cyclopropylmethyl)-5-fluoro-1H-indol-6-yl)ethyl)-3-fluorobicyclo[1.1.1]pentane-1-carboxamide]	45.8 nM
